The values that follow come from ChEMBL document CHEMBL5550104, “Discovery of 3-hydroxymethyl-azetidine derivatives as potent polymerase theta inhibitors” (Bioorg Med Chem, 2024).

The term IC50 denotes the concentration at which inhibition is half-maximal.

Assay [1] addresses T1, DNA polymerase theta (Homo sapiens, UniProt O75417).
The target of assay [2] is T1, DNA polymerase theta. The assay can be described thus: Inhibition of DNA polymerase theta mediated TMEJ repair activity in human HEK293T cells transfected with TMEJ reporter incubated for 24 hrs by Nano-glo luciferase assay. The class given is cell-based.
The subject of the next assay is DLD-1. The assay can be described thus: Antiproliferative activity against BRCA2 deficient human DLD-1 cells assessed as inhibition of cell growth incubated for 7 days by Cell-titer glo luminescence assay. The class given is functional, cell-based. The following applies: DLD-1, 168 h.
A further assay deals with Cytochrome P450 3A4 (Homo sapiens, UniProt P08684). The assay can be described thus: Inhibition of CYP3A4 in human liver microsomes using midazolam as substrate incubated for 10 mins in presence of NADPH by LC-MS/MS analysis. The class given is ADME, Microsome. (Liver microsomes are vesicles of endoplasmic reticulum, rich in cytochrome P450 enzymes.)
Cytochrome P450 3A4, sequence (P08684 whole entry): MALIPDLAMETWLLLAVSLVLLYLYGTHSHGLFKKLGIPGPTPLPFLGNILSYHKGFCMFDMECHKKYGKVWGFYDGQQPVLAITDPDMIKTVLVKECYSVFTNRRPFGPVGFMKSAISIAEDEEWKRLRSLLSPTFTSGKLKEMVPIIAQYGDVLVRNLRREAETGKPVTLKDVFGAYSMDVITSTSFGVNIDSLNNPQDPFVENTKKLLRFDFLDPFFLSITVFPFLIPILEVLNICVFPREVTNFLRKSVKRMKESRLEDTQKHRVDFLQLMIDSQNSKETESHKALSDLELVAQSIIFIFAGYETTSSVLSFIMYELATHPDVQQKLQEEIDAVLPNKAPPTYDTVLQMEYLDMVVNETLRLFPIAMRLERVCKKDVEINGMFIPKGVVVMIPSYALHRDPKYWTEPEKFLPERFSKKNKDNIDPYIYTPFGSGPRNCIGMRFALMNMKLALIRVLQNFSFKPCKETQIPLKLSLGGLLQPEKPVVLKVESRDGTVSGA
A further assay addresses Cytochrome P450 2D6 (Homo sapiens, UniProt P10635). Put plainly: Inhibition of CYP2D6 in human liver microsomes using dextromethorphan as substrate incubated for 10 mins in presence of NADPH by LC-MS/MS analysis. The class given is ADME, Microsome.
The next assay has as its target T2, Cytochrome P450 1A2 (Homo sapiens, UniProt P05177).
T2 sequence (P05177 whole entry): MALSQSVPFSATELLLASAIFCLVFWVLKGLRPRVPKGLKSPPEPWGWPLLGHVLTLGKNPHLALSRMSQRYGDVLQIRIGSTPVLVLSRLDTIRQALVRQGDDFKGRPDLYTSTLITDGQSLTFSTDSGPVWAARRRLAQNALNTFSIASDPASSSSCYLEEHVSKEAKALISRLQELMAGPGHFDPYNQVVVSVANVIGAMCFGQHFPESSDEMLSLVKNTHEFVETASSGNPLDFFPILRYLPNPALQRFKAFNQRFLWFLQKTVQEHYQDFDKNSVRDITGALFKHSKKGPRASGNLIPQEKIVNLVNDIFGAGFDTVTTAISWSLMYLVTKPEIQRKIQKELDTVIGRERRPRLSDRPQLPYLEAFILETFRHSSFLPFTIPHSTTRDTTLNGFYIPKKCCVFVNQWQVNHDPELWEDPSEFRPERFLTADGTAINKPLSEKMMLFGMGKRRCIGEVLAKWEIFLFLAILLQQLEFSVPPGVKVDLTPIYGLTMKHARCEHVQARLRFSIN
Put plainly: Inhibition of CYP1A2 in human liver microsomes using phenacetin as substrate incubated for 10 mins in presence of NADPH by LC-MS/MS analysis. The class given is ADME, Microsome.

The target of the next assay is Cytochrome P450 2C9 (Homo sapiens, UniProt P11712). Put plainly: Inhibition of CYP2C9 in human liver microsomes using diclofenac as substrate incubated for 10 mins in presence of NADPH by LC-MS/MS analysis. The class given is ADME, Microsome.
Cytochrome P450 2C9, sequence (P11712 whole entry): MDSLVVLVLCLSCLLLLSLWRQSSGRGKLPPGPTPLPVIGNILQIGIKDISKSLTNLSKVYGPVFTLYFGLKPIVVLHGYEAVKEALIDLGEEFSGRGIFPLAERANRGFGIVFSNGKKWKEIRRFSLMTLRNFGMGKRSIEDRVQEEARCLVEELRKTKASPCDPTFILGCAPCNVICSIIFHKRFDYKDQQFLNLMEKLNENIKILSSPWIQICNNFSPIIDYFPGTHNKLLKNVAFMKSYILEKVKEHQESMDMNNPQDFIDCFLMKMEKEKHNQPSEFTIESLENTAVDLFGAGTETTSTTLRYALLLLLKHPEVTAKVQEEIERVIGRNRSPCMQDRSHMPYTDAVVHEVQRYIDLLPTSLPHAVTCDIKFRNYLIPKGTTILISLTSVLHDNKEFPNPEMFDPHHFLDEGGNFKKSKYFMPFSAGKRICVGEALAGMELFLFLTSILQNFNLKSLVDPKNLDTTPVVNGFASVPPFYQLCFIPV
A further assay concerns the target Cytochrome P450 2C19 (Homo sapiens, UniProt P33261). The assay can be described thus: Inhibition of CYP2C19 in human liver microsomes using S-mephenytoin as substrate incubated for 10 mins in presence of NADPH by LC-MS/MS analysis. The class given is ADME, Microsome.

T1 sequence (O75417 whole entry): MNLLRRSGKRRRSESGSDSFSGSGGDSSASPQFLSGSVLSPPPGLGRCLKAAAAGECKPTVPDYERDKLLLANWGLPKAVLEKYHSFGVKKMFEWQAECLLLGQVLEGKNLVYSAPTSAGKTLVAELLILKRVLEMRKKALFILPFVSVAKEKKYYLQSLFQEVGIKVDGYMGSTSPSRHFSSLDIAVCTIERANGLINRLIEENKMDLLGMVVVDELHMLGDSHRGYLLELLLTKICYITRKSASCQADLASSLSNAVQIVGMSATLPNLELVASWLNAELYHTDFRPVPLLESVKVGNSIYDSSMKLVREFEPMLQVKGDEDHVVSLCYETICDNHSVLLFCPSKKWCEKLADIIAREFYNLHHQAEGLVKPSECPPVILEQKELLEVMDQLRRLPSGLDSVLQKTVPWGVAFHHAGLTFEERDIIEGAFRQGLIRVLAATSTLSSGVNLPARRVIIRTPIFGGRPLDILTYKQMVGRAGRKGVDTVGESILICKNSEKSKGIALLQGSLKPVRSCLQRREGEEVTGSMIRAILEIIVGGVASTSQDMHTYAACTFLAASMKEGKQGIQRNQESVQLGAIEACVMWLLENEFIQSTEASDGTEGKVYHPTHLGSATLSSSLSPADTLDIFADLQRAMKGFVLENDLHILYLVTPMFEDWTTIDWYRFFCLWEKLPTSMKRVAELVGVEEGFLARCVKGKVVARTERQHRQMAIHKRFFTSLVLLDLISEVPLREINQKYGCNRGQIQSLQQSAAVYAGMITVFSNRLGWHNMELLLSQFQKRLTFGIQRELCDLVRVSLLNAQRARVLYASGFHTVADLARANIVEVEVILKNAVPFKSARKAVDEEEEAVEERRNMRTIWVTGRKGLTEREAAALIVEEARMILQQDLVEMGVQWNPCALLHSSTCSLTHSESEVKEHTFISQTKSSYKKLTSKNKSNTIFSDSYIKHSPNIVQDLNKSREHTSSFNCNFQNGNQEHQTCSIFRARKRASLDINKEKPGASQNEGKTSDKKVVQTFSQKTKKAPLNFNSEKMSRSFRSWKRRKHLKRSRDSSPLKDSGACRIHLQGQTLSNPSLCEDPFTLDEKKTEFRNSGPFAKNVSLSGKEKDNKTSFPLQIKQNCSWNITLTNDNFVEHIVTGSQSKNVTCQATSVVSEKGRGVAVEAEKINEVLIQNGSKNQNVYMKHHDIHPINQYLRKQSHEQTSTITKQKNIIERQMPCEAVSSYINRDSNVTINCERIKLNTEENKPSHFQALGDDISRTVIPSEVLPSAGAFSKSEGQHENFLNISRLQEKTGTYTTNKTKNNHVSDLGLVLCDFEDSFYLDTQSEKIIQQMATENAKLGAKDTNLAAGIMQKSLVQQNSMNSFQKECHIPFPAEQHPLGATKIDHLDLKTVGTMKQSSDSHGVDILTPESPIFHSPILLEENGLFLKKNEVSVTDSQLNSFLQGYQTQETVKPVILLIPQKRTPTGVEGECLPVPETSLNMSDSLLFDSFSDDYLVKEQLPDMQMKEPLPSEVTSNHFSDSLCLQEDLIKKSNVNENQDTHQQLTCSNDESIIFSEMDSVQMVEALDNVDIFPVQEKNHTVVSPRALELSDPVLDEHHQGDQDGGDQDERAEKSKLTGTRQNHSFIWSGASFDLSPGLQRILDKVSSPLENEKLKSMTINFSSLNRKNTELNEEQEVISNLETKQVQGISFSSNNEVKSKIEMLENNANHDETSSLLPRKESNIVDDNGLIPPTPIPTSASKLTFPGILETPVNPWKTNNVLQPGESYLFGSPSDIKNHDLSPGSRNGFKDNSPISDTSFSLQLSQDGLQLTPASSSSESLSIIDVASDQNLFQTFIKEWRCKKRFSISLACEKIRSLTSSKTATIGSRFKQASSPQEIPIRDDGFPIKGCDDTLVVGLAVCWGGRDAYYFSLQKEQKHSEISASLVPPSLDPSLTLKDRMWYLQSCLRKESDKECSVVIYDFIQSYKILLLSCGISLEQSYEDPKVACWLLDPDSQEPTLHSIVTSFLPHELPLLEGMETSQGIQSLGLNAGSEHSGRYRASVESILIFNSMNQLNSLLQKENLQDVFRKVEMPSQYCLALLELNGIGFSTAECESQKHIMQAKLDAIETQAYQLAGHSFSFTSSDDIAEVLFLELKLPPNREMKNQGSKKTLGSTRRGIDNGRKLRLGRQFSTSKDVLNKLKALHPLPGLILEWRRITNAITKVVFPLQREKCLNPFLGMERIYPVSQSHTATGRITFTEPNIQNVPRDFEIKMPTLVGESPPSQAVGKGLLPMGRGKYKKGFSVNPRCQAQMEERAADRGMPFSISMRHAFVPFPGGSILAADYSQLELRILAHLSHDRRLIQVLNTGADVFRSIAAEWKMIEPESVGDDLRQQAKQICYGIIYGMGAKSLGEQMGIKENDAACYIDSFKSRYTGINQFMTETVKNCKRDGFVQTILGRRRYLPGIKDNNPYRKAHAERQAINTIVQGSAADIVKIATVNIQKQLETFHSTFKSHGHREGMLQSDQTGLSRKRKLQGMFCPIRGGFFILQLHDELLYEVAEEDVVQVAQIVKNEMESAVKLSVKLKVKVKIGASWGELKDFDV
Cytochrome P450 2D6, sequence (P10635 whole entry): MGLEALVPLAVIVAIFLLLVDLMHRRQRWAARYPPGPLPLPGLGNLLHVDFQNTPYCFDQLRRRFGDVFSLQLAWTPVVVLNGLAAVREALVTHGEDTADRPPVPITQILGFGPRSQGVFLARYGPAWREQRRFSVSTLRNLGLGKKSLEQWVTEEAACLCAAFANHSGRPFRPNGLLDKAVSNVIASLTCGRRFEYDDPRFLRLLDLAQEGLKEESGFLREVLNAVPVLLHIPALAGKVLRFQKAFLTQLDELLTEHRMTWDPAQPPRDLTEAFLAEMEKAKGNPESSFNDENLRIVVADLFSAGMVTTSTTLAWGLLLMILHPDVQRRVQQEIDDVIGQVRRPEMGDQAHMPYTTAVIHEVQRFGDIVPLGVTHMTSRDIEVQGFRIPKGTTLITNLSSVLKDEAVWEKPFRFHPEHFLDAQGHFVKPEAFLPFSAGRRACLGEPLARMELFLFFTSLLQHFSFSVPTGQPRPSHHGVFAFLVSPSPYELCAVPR
Cytochrome P450 2C19, sequence (P33261 whole entry): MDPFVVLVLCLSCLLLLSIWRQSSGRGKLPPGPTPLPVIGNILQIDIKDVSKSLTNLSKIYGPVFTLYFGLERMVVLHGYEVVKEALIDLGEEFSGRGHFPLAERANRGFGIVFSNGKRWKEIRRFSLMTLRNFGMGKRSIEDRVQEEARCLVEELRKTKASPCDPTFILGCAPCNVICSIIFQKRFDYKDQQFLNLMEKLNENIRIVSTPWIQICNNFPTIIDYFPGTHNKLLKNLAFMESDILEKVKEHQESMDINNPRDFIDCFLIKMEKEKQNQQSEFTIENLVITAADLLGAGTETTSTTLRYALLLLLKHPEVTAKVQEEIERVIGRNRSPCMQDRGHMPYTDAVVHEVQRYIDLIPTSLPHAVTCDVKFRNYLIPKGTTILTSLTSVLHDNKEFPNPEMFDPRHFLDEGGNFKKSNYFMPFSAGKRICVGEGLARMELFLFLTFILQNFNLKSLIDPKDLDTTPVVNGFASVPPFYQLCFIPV

For the compound `Cc1cc(C(F)(F)F)cc(N2CC[C@H]2C(=O)N(C)c2ccc(F)c(Cl)c2)n1`, on DNA polymerase theta [1], the midpoint of inhibition, the IC50, lay at 221 nM. On the same count and under the same terms, for `Cc1cc(C(F)(F)F)cc(N2C(=O)C[C@H]2C(=O)N(C)c2ccc(F)c(Cl)c2)n1` the value was 41.3 nM. Turning to `Cc1cc(C(F)(F)F)c(C#N)c(N2CC[C@@H](O)[C@H]2C(=O)N(C)c2ccc(F)c(Cl)c2)n1`, the IC50 on DNA polymerase theta [2] was 160 nM; against DNA polymerase theta [1] it was 7.9 nM; with DLD-1, 5500 nM.

On DNA polymerase theta [1], `Cc1cc(C(F)(F)F)c(C#N)c(N2C[C@@H](CCl)[C@H]2C(=O)N(C)c2ccc(F)c(Cl)c2)n1` displayed an IC50 of 923 nM. On DNA polymerase theta [1], `Cc1cc(C(F)(F)F)c(C#N)c(N2C(=O)C[C@H]2C(=O)N(C)c2ccc(F)c(Cl)c2)n1` returned an IC50 of 858 nM.

`Cc1cc(C(F)(F)F)cc(N2CCOC[C@H]2C(=O)N(C)c2ccc(F)c(Cl)c2)n1` displayed an IC50 at DNA polymerase theta [1] of 3890 nM. On to `[2H]C([2H])([2H])N(C(=O)[C@@H]1[C@H](CO)CN1c1nc(C)cc(C(F)(F)F)c1C#N)c1ccc(F)c(Cl)c1`, for which the IC50 at Cytochrome P450 3A4 is 14600 nM; at Cytochrome P450 2D6 it was 17300 nM; at Cytochrome P450 1A2 it was more than 50000 nM; on Cytochrome P450 2C9 it was 3100 nM; on Cytochrome P450 2C19, 770 nM.

In the case of `Cc1cc(C(F)(F)F)c(C#N)c(N2CC[C@H]2C(=O)N(C)c2ccc(F)c(Cl)c2)n1`, the IC50 on DNA polymerase theta [1] was 104 nM.
